# Data: US12076306B2, “Prodrugs of fumarates and their use in treating various diseases” (Alkermes Pharma Ireland Limited, priority 2013, dated 2024)
# Structures can show the parent of a compound that is named as a salt.
# Legend:
# Format in all cases: physicochemical
# [1] = Physical stability in crystalline form by thermogravimetric analysis (TGA); settings: DMF loss in less than 4 hours
# Experimental: The physical stability of compounds of the present invention and DMF were measured via thermogravimetric analysis (TGA).
# [2] = Aqueous chemical stability, 100 mM phosphate buffer, HPLC (Table 3); settings: buffer phosphate (100 mM), 37° C., half-lives >360 min estimated from initial slope
# Experimental: Stock solutions of the compounds in acetonitrile or acetonitrile/methanol were prepared at 20 mg/mL and 20 μL, spiked into 3 mL of buffer phosphate (100 mM) and incubated at 37° C. Aliquots (50 μL) were sampled at different time points and diluted 20 fold with ammonium formate (pH 3.5)/acetonitrile. The diluted samples were analyzed by HPLC. The peak areas corresponding to the compounds were plotted against time and the data were fitted to a first-order mono-exponential decay where the rate constant and the half-life were determined (Table 3).
# [3] = Aqueous chemical stability, 50 mM phosphate buffer pH 8, HPLC-UV (Table 4); settings: 50 mM buffer phosphate pH 8, 37° C., HPLC UV 211 nm
# Experimental: Stock solutions of the compounds in acetonitrile or acetonitrile/MeOH were prepared at 0.05M. A 0.010 mL aliquot of the stock was spiked into 1 mL of 50 mM buffer phosphate pH 8 and incubated at 37° C. Typically, aliquots (0.010 mL) were sampled at different time points and immediately injected in the HPLC with UV detection (211 nm). The peak areas corresponding to the compounds were plotted against time and the data were fitted to a first-order mono-exponential decay where the rate constant and the half-life were determined from the slope (Table 4).
weight loss at 60° C. vs time [1],"pH 8 (t ½, min) [2]","pH 8 (t ½, min) [3]",Compound
~100%,,,"COC(=O)/C=C/C(=O)OC [DMF, Dimethyl fumarate, reference compound]"
,20.0 min,,"COC(=O)/C=C/C(=O)OCCN1CCOCC1 [Compound 16, Methyl (2-morpholinoethyl) fumarate hydrochloride]"
,,96 min,"C#CCOC(=O)/C=C/C(=O)OC [Compound 131, Methyl prop-2-yn-1-yl fumarate]"
,,115 min,"COC(=O)/C=C/C(=O)OCCN1CCOC(CN(C)C)C1 (centres unmarked) [Compound 33, 2-(2-((Dimethylamino)methyl)morpholino)ethyl methyl fumarate hydrochloride]"
,45 min,30 min,"COC(=O)/C=C/C(=O)OCC[N+](C)(C)C [Compound 4, (E)-2-((4-methoxy-4-oxobut-2-enoyl)oxy)-N,N,N-trimethylethanaminium iodide]"
,5.0 min,,"CCN(CC)CCOC(=O)/C=C/C(=O)OC [Compound 20, 2-(diethylamino)ethyl methyl fumarate hydrochloride]"
,,<10 min,"COC(=O)/C=C/C(=O)OCCN1CC(C)OC(C)C1 (centres unmarked) [Compound 29, 2-(2,6-dimethylmorpholino)ethyl methyl fumarate hydrochloride]"
,,229 min,"COC(=O)/C=C/C(=O)OCCN1CCOCC1=O [Compound 30, Methyl (2-(3-oxomorpholino)ethyl) fumarate]"
,,201 min,"COC(=O)/C=C/C(=O)OCCN1CCCC1=O [Compound 38, Methyl (2-(2-oxopyrrolidin-1-yl)ethyl) fumarate]"
,3.0 min,,"COC(=O)/C=C/C(=O)OCCN1CCCCC1 [Compound 15, Methyl (2-(piperidin-1-yl)ethyl) fumarate hydrochloride]"
,24 min,24 min,"COC(=O)/C=C/C(=O)OCCN1CCC(F)(F)CC1 [Compound 5, 2-(4,4-difluoropiperidin-1-yl)ethyl methyl fumarate hydrochloride]"
,11.0 min,,"COC(=O)/C=C/C(=O)OCCN1CCC2(CC1)OCCO2 [Compound 17, 2-(1,4-dioxa-8-azaspiro[4.5]decan-8-yl)ethyl methyl fumarate hydrochloride]"
,,203 min,"COC(=O)/C=C/C(=O)OCCN1C(=O)NC(C)(C)C1=O [Compound 40, 2-(4,4-Dimethyl-2,5-dioxoimidazolidin-1-yl)ethyl methyl fumarate]"
,,<10 min,"COC(=O)/C=C/C(=O)OCCN1CCOC(C)(C)C1 [Compound 28, 2-(2,2-dimethylmorpholino)ethyl methyl fumarate hydrochloride]"
,,129 min,"COC(=O)/C=C/C(=O)OCC[N+]1([O-])CCOCC1 [Compound 26, (E)-4-(2-((4-methoxy-4-oxobut-2-enoyl)oxy)ethyl)morpholine 4-oxide]"
,,145 min,"COC(=O)/C=C/C(=O)OCCN(C(C)=O)C(C)=O [Compound 44, 2-(N-Acetylacetamido)ethyl methyl fumarate]"
,>240 min,,"COC(=O)/C=C/C(=O)OCCN1CCS(=O)(=O)CC1 [Compound 11, 2-(1,1-dioxidothiomorpholino)ethyl methyl fumarate hydrochloride]"

weight loss at 60° C. vs time [1],"pH 8 (t ½, min) [2]","pH 8 (t ½, min) [3]",Compound
,,26 min,"COC(=O)/C=C/C(=O)OCCN1CCOC(=O)C1 [Compound 31, Methyl (2-(2-oxomorpholino)ethyl) fumarate hydrochloride]"
,,158 min,"CCC(=O)N(CCOC(=O)/C=C/C(=O)OC)C(=O)CC [Compound 42, Methyl (2-(N-propionylpropionamido)ethyl) fumarate]"
no change,,,"COC(=O)/C=C/C(=O)OCCN1C(=O)CCC1=O [Compound 14, 2-(2,5-dioxopyrrolidin-1-yl)ethyl methyl fumarate]"
,,177.5 min,"COC(=O)/C=C/C(=O)OCCNC(C)=O [Compound 43, 2-Acetamidoethyl methyl fumarate]"
,120 min,,"CCN(CC)C(=O)COC(=O)/C=C/C(=O)OC [Reference Compound A, 2-(diethylamino)-2-oxoethyl methyl fumarate, reference compound]"
,,183 min,"COC(=O)/C=C/C(=O)OCCN1CCOC1=O [Compound 39, Methyl (2-(2-oxooxazolidin-3-yl)ethyl) fumarate]"
,5.0 min,,"COC(=O)/C=C/C(=O)OCCN1CCCC1 [Compound 18, Methyl (2-(pyrrolidin-1-yl)ethyl) fumarate hydrochloride]"
,,182 min,"COC(=O)/C=C/C(=O)OCCN1C(=O)CC(C)(C)C1=O [Compound 37, 2-(3,3-Dimethyl-2,5-dioxopyrrolidin-1-yl)ethyl methyl fumarate]"
,67.0 min,,"COC(=O)/C=C/C(=O)OCCS(C)(=O)=O [Compound 10, Methyl (2-(methylsulfonyl)ethyl) fumarate]"
,,144 min,"COC(=O)/C=C/C(=O)OCCN1C(=O)C2CC2C1=O (centres unmarked) [Compound 22, 2-(2,4-Dioxo-3-azabicyclo[3.1.0]hexan-3-yl)ethyl methyl fumarate]"
,,246 min,"COC(=O)/C=C/C(=O)OCCCN1C(=O)CCC1=O [Compound 133, 3-(2,5-Dioxopyrrolidin-1-yl)propyl methyl fumarate]"
,,37 min,"COC(=O)/C=C/C(=O)OCCN1C(=O)COCC1=O [Compound 27, 2-(3,5-dioxomorpholino)ethyl methyl fumarate]"
,,13 min,"COC(=O)/C=C/C(=O)OCCN1CC2CCC(C1)O2 [Compound 32, 2-(8-Oxa-3-azabicyclo[3.2.1]octan-3-yl)ethyl methyl fumarate hydrochloride]"
,,1010 min,"COC(=O)/C=C/C12COC(C)(CO1)CO2 [Compound 130, (E)-Methyl 3-(4-methyl-2,5,7-trioxabicyclo[2.2.2]octan-1-yl)acrylate]"
,6.0 min,117 min,"COC(=O)/C=C/C(=O)OCCN(C)C [Compound 19, 2-(dimethylamino)ethyl methyl fumarate hydrochloride]"
,,186 min,"COC(=O)/C=C/C(=O)OCCN1C(=O)[C@@H](C)[C@@H](C)C1=O [Compound 23, 2-((3R,4S)-3,4-Dimethyl-2,5-dioxopyrrolidin-1-yl)ethyl methyl fumarate]"

Compound,weight loss at 60° C. vs time [1],"pH 8 (t ½, min) [2]","pH 8 (t ½, min) [3]"
"COC(=O)/C=C/C(=O)OCCNc1ccccc1 [Compound 8, Methyl (2-(phenylamino)ethyl) fumarate hydrochloride]",,36.0 min,
"COC(=O)/C=C/C(=O)OCCNC(=O)OC(C)(C)C [Compound 48, 2-((tert-butoxycarbonyl)amino)ethyl methyl fumarate]",,,220 min
"COC(=O)/C=C/C(=O)OCC(C)(C)N(C)C [Compound 9, 2-(dimethylamino)-2-methylpropyl methyl fumarate hydrochloride]",,7.0 min,
"COC(=O)/C=C/C(=O)OCCN(CC(=O)O)CC(=O)O [Compound 1, (E)-2,2′-((2-((4-methoxy-4-oxobut-2-enoyl)oxy)ethyl)azanediyl)diacetic acid hydrochloride]",,15 min,15 min
"COC(=O)/C=C/C(=O)OC(C)CN(C)C (centres unmarked) [Compound 6, 1-(dimethylamino)propan-2-yl methyl fumarate hydrochloride]",,2.0 min,2 min
"COC(=O)/C=C/C(=O)OCCN1CCSCC1 [Compound 7, Methyl (2-thiomorpholinoethyl) fumarate hydrochloride]",,26.0 min,
